From PubChem BioAssay AID328 (DTP/NCI, 2004)
Where “and” joins values, the source holds several entries; their conditions need not be identical. Equal values may be shown once. Inconclusive results and toxic doses are left out.

System: BDF1 mice, P388 leukemia ip, median survival T/C
Assay: NCI In Vivo Anticancer Drug Screen. Data for tumor model P388 Leukemia (intraperitoneal) in B6D2F1 (BDF1) mice
Conditions: endpoint: median survival time, higher = longer survival
How it was run: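 Reported as T/C, where T is the survival measurement in dosed animals and C the same measurement in vehicle controls.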

[1] = dose: 100.0 mg/kg/injection, schedule: Q01DX001 (ip), vehicle: saline with Tween-80
[2] = dose: 200.0 mg/kg/injection, schedule: Q01DX001 (ip), vehicle: saline with Tween-80
[3] = dose: 400.0 mg/kg/injection, schedule: Q01DX001 (ip), vehicle: saline with Tween-80
[4] = dose: 100.0 mg/kg/injection, schedule: Q04DX003 (ip), vehicle: saline with Tween-80
[5] = dose: 200.0 mg/kg/injection, schedule: Q04DX003 (ip), vehicle: saline with Tween-80
[6] = dose: 50.0 mg/kg/injection, schedule: Q04DX003 (ip), vehicle: saline with Tween-80
[7] = dose: 25.0 mg/kg/injection, schedule: Q01DX009 (ip), vehicle: saline with Tween-80
[8] = dose: 25.0 mg/kg/injection, schedule: Q04DX003 (ip), vehicle: Klucel (hydroxypropylcellulose) (HPC)
[9] = dose: 50.0 mg/kg/injection, schedule: Q01DX009 (ip), vehicle: saline with Tween-80
[10] = dose: 50.0 mg/kg/injection, schedule: Q04DX003 (ip), vehicle: Klucel (hydroxypropylcellulose) (HPC)
[11] = dose: 25.0 mg/kg/injection, schedule: Q01DX009 (ip), vehicle: saline
[12] = dose: 50.0 mg/kg/injection, schedule: Q01DX009 (ip), vehicle: saline
[13] = dose: 100.0 mg/kg/injection, schedule: Q01DX009 (ip), vehicle: saline with Tween-80
[14] = dose: 100.0 mg/kg/injection, schedule: Q01DX009 (ip), vehicle: saline
[15] = dose: 200.0 mg/kg/injection, schedule: Q04DX003 (ip), vehicle: saline
[16] = dose: 400.0 mg/kg/injection, schedule: Q01DX009 (ip), vehicle: saline
[17] = dose: 400.0 mg/kg/injection, schedule: Q04DX003 (ip), vehicle: saline
[18] = dose: 200.0 mg/kg/injection, schedule: Q01DX009 (ip), vehicle: saline with Tween-80
[19] = dose: 200.0 mg/kg/injection, schedule: Q01DX009 (ip), vehicle: saline

`COc1cc2c(c3oc(=O)ccc13)C(=O)CC(C)(C)O2` was tested, and the T/C (dose: 50.0 mg/kg/injection, schedule: Q01DX001 (ip), vehicle: saline) was 108 % of control, the T/C (dose: 100.0 mg/kg/injection, schedule: Q01DX001 (ip), vehicle: saline) was 100 % of control and the T/C (dose: 200.0 mg/kg/injection, schedule: Q01DX001 (ip), vehicle: saline) was 104 % of control.

With `OC1CCC2(CC1)SCCS2` the T/C [1] was 96 % of control, the T/C [2] was 103 % of control and the T/C [3] was 101 % of control.

For `NC(=O)C(CC(=O)OCc1ccccc1)NC(=O)OCc1ccccc1` (stereo not drawn), the T/C [4] was 100 % of control, the T/C [5] was 95 % of control and the T/C (dose: 400.0 mg/kg/injection, schedule: Q04DX003 (ip), vehicle: saline with Tween-80) was 104 % of control.

In the case of `O=C1OCCC1C(=O)C(O)(C(F)(F)F)C(F)(F)F` (stereo not drawn), the T/C (dose: 100.0 mg/kg/injection, schedule: Q01DX001 (ip), vehicle: other) is reported as 90 % of control, the T/C (dose: 200.0 mg/kg/injection, schedule: Q01DX001 (ip), vehicle: other) is reported as 90 % of control and the T/C (dose: 400.0 mg/kg/injection, schedule: Q01DX001 (ip), vehicle: other) is reported as 100 % of control.

With `ClC(Cl)(Cl)c1nc2nccnc2[nH]1` the T/C (dose: 44.0 mg/kg/injection, schedule: Q04DX003 (ip), vehicle: Klucel (hydroxypropylcellulose) (HPC)) was 104 % of control, the T/C [6] was 109 % of control and the T/C (dose: 66.0 mg/kg/injection, schedule: Q04DX003 (ip), vehicle: Klucel (hydroxypropylcellulose) (HPC)) was 108 % of control. For the same compound, the T/C (dose: 66.0 mg/kg/injection, schedule: Q04DX003 (ip), vehicle: saline with Tween-80) was 109 % of control, the T/C [4] was 104 % of control and the T/C (dose: 150.0 mg/kg/injection, schedule: Q04DX003 (ip), vehicle: Klucel (hydroxypropylcellulose) (HPC)) was 100 % of control.

`NC1=Nc2cccc3cccc(c23)N1` was tested, and the T/C (dose: 12.5 mg/kg/injection, schedule: Q01DX009 (ip), vehicle: saline with Tween-80) was 92 % of control, the T/C (dose: 12.5 mg/kg/injection, schedule: Q04DX003 (ip), vehicle: Klucel (hydroxypropylcellulose) (HPC)) was 109 % of control and the T/C [7] was 100 % of control. The T/C [8] was 100 % of control, the T/C [9] was 100 % of control and the T/C [10] was 109 % of control.

In the case of `C=CCC1(CC)C(=O)NC(=O)NC1=O`, the T/C [6] is reported as 91 % of control, the T/C [4] is reported as 91 % of control and the T/C [5] is reported as 91 % of control.

`Cc1ccc(C)c(CN(C)C)c1O` was tested, and the T/C [8] was 118 % of control, the T/C [10] was 100 % of control and the T/C (dose: 100.0 mg/kg/injection, schedule: Q04DX003 (ip), vehicle: Klucel (hydroxypropylcellulose) (HPC)) was 100 % of control.

With `CC(N)Cc1ccc(N(C)C)cc1F` (stereo not drawn) the T/C [7] was 96 % of control, the T/C [11] was 103 % of control and the T/C [9] was 96 % of control. For the same compound, the T/C [12] was 98 % of control and 107 % of control, the T/C [13] was 107 % of control and the T/C [14] was 96 % of control.

For `NC1CONC1=O` (stereo not drawn), the T/C [11] was 90 % of control, the T/C (dose: 25.0 mg/kg/injection, schedule: Q04DX003 (ip), vehicle: saline) was 104 % of control and the T/C [12] was 95 % of control. The T/C (dose: 50.0 mg/kg/injection, schedule: Q04DX003 (ip), vehicle: saline) was 100 % of control, the T/C [14] was 90 % of control and the T/C (dose: 100.0 mg/kg/injection, schedule: Q04DX003 (ip), vehicle: saline) was 104 % of control. The T/C [15] was 100 % of control, the T/C [16] was 100 % of control and the T/C [17] was 100 % of control.

With `CCOC(=O)/C(=N\O)C1=CSC2=NNC(C)(C)N12` the T/C [9] was 95 % of control and the T/C [18] was 92 % of control.

In the case of `S=C(Nc1ccccc1)N(C1CCCCC1)C1CCCCC1`, the T/C [1] is reported as 100 % of control, the T/C [2] is reported as 103 % of control and the T/C [18] is reported as 155 % of control. For the same compound, the T/C [3] was 103 % of control.

In the case of `CC(=O)CC(=O)C(F)(F)F.CC(=O)CC(=O)C(F)(F)F.[O]=[V]`, the T/C (dose: 3.8 mg/kg/injection, schedule: Q01DX009 (ip), vehicle: Klucel (hydroxypropylcellulose) (HPC)) is reported as 106 % of control and the T/C (dose: 7.5 mg/kg/injection, schedule: Q01DX009 (ip), vehicle: Klucel (hydroxypropylcellulose) (HPC)) is reported as 91 % of control.

In the case of `CCCCCCCCCCCCCCC(F)C(=O)OC` (stereo not drawn), the T/C (dose: 25.0 mg/kg/injection, schedule: Q01DX009 (sc), vehicle: olive oil, sesame oil, peanut oil) is reported as 95 % of control, the T/C (dose: 50.0 mg/kg/injection, schedule: Q01DX009 (sc), vehicle: olive oil, sesame oil, peanut oil) is reported as 86 % of control and the T/C (dose: 50.0 mg/kg/injection, schedule: Q04DX003 (sc), vehicle: olive oil, sesame oil, peanut oil) is reported as 91 % of control. The T/C (dose: 100.0 mg/kg/injection, schedule: Q01DX009 (sc), vehicle: olive oil, sesame oil, peanut oil) was 100 % of control and the T/C (dose: 100.0 mg/kg/injection, schedule: Q04DX003 (sc), vehicle: olive oil, sesame oil, peanut oil) was 91 % of control.

`Cn1c(=N)ccn(C2OC(CO)C(O)C2O)c1=O` (stereo not drawn) (tested in a mixture with another compound) was tested, and the T/C [15] was 111 % of control and the T/C [17] was 165 % of control.

For `CN(C)Cc1cc(C(C)(C)CC(C)(C)C)ccc1O`, the T/C (dose: 100.0 mg/kg/injection, schedule: Q04DX002 (ip), vehicle: Klucel (hydroxypropylcellulose) (HPC)) was 114 % of control and the T/C (dose: 200.0 mg/kg/injection, schedule: Q04DX002 (ip), vehicle: Klucel (hydroxypropylcellulose) (HPC)) was 99 % of control.

In the case of `OCC1CC=CCC1` (stereo not drawn), the T/C [14] is reported as 114 % of control, the T/C [19] is reported as 109 % of control and the T/C [16] is reported as 119 % of control.

`NC(=O)SCC(N)C(=O)O` (stereo not drawn) was tested, and the T/C [12] was 115 % of control, the T/C [14] was 115 % of control and the T/C [19] was 118 % of control.

`CC1(COCCOCC2(C)CO2)CO1` (stereo not drawn) was tested, and the T/C [16] was 175 % of control and the T/C (dose: 600.0 mg/kg/injection, schedule: Q01DX009 (ip), vehicle: saline) was 208 % of control.

In the case of `Nc1cc(=O)[nH]n1-c1ccccc1`, the T/C [9] is reported as 101 % of control, the T/C [13] is reported as 103 % of control and the T/C [18] is reported as 98 % of control.
